Assay results published in patent US6420535B1, “6-O-carbamate ketolide derivatives” (Abbott Laboratories, priority 1999, dated 2002).
≈ marks a conversion by molar mass, not a printed value.

Assays:
Type in all cases: cell-based
[1] = system: Candida albicans CCH 442; experiment: In vitro antibacterial MIC, agar dilution (BHI agar); conditions: 35-37° C., 20 to 24 hours, unit assumed
Description: (§1) Representative compounds of the present invention were assayed in vitro for antibacterial activity as follows: Twelve petri dishes containing successive aqueous dilutions of the test compound mixed with 10 mL of sterilized Brain Heart Infusion (BHI) agar (Difco 0418-01-5) were prepared. Each plate was inoculated with 1:100 (or 1:10 for slow-growing strains, such as Micrococcus and Streptococcus) dilutions of up to 32 different microorganisms, using a Steers replicator block. The inoculated plates were incubated at 35-37° C. for 20 to 24 hours. In addition, a control plate, using BHI agar containing no test compound, was prepared and incubated at the beginning and end of each test.
(§2) An additional plate containing a compound having known susceptibility patterns for the organisms being tested and belonging to the same antibiotic class as the test compound was also prepared and incubated as a further control, as well as to provide test-to-test comparability. Erythromycin A was used for this purpose.
(§3) After incubation, each plate was visually inspected. The minimum inhibitory concentration (MIC) was defined as the lowest concentration of drug yielding no growth, a slight haze, or sparsely isolated colonies on the innoculum spot as compared to the growth control. The results of this assay, which relate to the antibacterial activity of the compounds of the invention, are reported below in Table 1.

[2] = system: Escherichia coli JUHL; experiment: as above; conditions: 35-37° C., 20 to 24 hours, unit assumed
Description: as §1, §2, §3

[3] = system: Escherichia coli SS; experiment: as above; conditions: 35-37° C., 20 to 24 hours, unit assumed
Description: as §1, §2, §3

[4] = system: Micrococcus luteus ATCC 4698; experiment: as above; conditions: 35-37° C., 20 to 24 hours, unit assumed
Description: as §1, §2, §3

[5] = system: Micrococcus luteus ATCC 9341; experiment: as above; conditions: 35-37° C., 20 to 24 hours, unit assumed
Description: as §1, §2, §3

[6] = system: Mycobacterium smegmatis ATCC 114; experiment: as above; conditions: 35-37° C., 20 to 24 hours, unit assumed
Description: as §1, §2, §3

[7] = system: Nocardia asteroides ATCC997O; experiment: as above; conditions: 35-37° C., 20 to 24 hours, unit assumed
Description: as §1, §2, §3

[8] = system: Staphylococcus aureus 1775; experiment: as above; conditions: 35-37° C., 20 to 24 hours, unit assumed
Description: as §1, §2, §3

[9] = system: Staphylococcus aureus A-5278; experiment: as above; conditions: 35-37° C., 20 to 24 hours, unit assumed
Description: as §1, §2, §3

[10] = system: Staphylococcus aureus A5177; experiment: as above; conditions: 35-37° C., 20 to 24 hours, unit assumed
Description: as §1, §2, §3

[11] = system: Staphylococcus aureus ATCC 6538P; experiment: as above; conditions: 35-37° C., 20 to 24 hours, unit assumed
Description: as §1, §2, §3

[12] = system: Staphylococcus aureus CMX 553; experiment: as above; conditions: 35-37° C., 20 to 24 hours, unit assumed
Description: as §1, §2, §3

[13] = system: Staphylococcus aureus CMX 642A; experiment: as above; conditions: 35-37° C., 20 to 24 hours, unit assumed
Description: as §1, §2, §3

[14] = system: Staphylococcus aureus NCTC10649M; experiment: as above; conditions: 35-37° C., 20 to 24 hours, unit assumed
Description: as §1, §2, §3

[15] = system: Staphylococcus epidermidis 3519; experiment: as above; conditions: 35-37° C., 20 to 24 hours, unit assumed
Description: as §1, §2, §3

[16] = system: Streptococcus agalactiae CMX 508; experiment: as above; conditions: 35-37° C., 20 to 24 hours, unit assumed
Description: as §1, §2, §3

[17] = system: Streptococcus bovis A-5169; experiment: as above; conditions: 35-37° C., 20 to 24 hours, unit assumed
Description: as §1, §2, §3

[18] = system: Streptococcus pyogenes 930; experiment: as above; conditions: 35-37° C., 20 to 24 hours, unit assumed
Description: as §1, §2, §3

[19] = system: Streptococcus pyogenes EES61; experiment: as above; conditions: 35-37° C., 20 to 24 hours, unit assumed
Description: as §1, §2, §3

[20] = system: Streptococcus pyogenes PIU 2548; experiment: as above; conditions: 35-37° C., 20 to 24 hours, unit assumed
Description: as §1, §2, §3

[21] = system: Escherichia coli DC-2; experiment: as above; conditions: 35-37° C., 20 to 24 hours, unit assumed
Description: as §1
(§4) An additional plate containing a compound having known susceptibility patterns for the organisms being tested and belonging to the same antibiotic class as the test compound was also prepared and incubated as a further control, as well as to provide test-to-test comparability.
(§5) After incubation, each plate was visually inspected. The minimum inhibitory concentration (MIC) was defined as the lowest concentration of drug yielding no growth, a slight haze, or sparsely isolated colonies on the innoculum spot as compared to the growth control.

[22] = system: Haemophilis influenzae DILL AMP R; experiment: Separate in vitro antibacterial assay (H. Influenza / S. Pneumonia); conditions: protocol as for Table 1, unit assumed
Description: as §1, §2, §3
(§6) In a separate assay representative compounds of the invention were assayed in vitro for antibacterial activity against H. Influenza Dill AMP R strain and S. Pneumonia, according to the protocol described above. The results of this assay, which relate to the antibacterial activity of compounds of the invention against the H. Influenza Dill AMP R and S. Pneumonia organisms, are shown below in Table 2.

[23] = system: Streptococcus pneumonia 5649; experiment: as above; conditions: protocol as for Table 1, unit assumed
Description: as §1, §2, §3, §6

[24] = system: Streptococcus pneumonia ATCC63O3; experiment: as above; conditions: protocol as for Table 1, unit assumed
Description: as §1, §2, §3, §6

[25] = system: Streptococcus pneumonia GYR 1171; experiment: as above; conditions: protocol as for Table 1, unit assumed
Description: as §1, §2, §3, §6

[26] = system: Streptococcus pneumonia 5979; experiment: as above; conditions: protocol as for Table 1, unit assumed
Description: as §1, §4, §5

Row | SMILES | MIC [1] [µg/mL] | MIC [2] [µg/mL] | MIC [3] [µg/mL] | MIC [4] [µg/mL] | MIC [6] [µg/mL] | MIC [7] [µg/mL] | MIC [8] [µg/mL] | MIC [9] [µg/mL] | MIC [10] [µg/mL] | MIC [11] [µg/mL] | MIC [14] [µg/mL] | MIC [15] [µg/mL] | MIC [16] [µg/mL] | MIC [17] [µg/mL] | MIC [18] [µg/mL] | MIC [19] [µg/mL] | MIC [20] [µg/mL] | MIC [21] [µg/mL] | MIC (antibacterial activity, Table 2) [22] [µg/mL] | MIC (antibacterial activity, Table 2) [23] [µg/mL] | other results
1 | CC[C@H]1OC(=O)[C@H](C)[C@@H](O[C@H]2C[C@@](C)(OC)[C@@H](O)[C@H](C)O2)[C@H](C)[C@@H](O[C@@H]2O[C@H](C)C[C@H](N(C)C)[C@H]2O)[C@](C)(O)C[C@@H](C)C(=O)[C@H](C)[C@@H](O)[C@]1(C)O [Ery. A, Erythromycin A, reference compound] | > 100 | > 100 | 0.78 (≈ 1.06 µM) | 0.2 (≈ 0.273 µM) | 3.1 (≈ 4.22 µM) | 0.1 (≈ 0.136 µM) | > 100 | > 100 | 3.1 (≈ 4.22 µM) | 0.2 (≈ 0.273 µM) | 0.39 (≈ 0.531 µM) | 0.39 (≈ 0.531 µM) | 0.05 (≈ 0.0681 µM) | 0.02 (≈ 0.0273 µM) | > 100 | 0.05 (≈ 0.0681 µM) | 6.2 (≈ 8.45 µM) | > 100 | 4 (≈ 5.45 µM) | 16 (≈ 21.8 µM) | MIC [5]: 0.05 µg/mL (≈ 0.0681 µM); MIC [12]: 0.39 µg/mL (≈ 0.531 µM); MIC [13]: 0.39 µg/mL (≈ 0.531 µM); MIC (antibacterial activity, Table 2) [24]: 0.06 µg/mL (≈ 0.0818 µM); MIC (antibacterial activity, Table 2) [25]: 0.06 µg/mL (≈ 0.0818 µM)
2 | CCC1OC(=O)C(C)C(=O)C(C)C(OC2OC(C)CC(N(C)C)C2O)C(C)(OC(=O)NC(=O)c2ccccc2)CC(C)C(=NO)C(C)C2OC(=O)OC12C (centres unmarked) [Ex. 1, Compound of Formula (IV-A): wherein A is —O—; X is N—OH; —M— is Absent, R^2 is Phenyl; and R^p is Hydrogen] | > 100 | 50 | 0.39 | 0.39 | 50 | 0.78 | > 100 | > 100 | 0.39 | 0.39 | 0.39 | 0.39 | 0.02 | 0.02 | > 100 | 0.02 | 1.56 | 100 | 8 | 2 | MIC (antibacterial activity, Table 2) [24]: 0.03 µg/mL; MIC (antibacterial activity, Table 2) [25]: 0.03 µg/mL; MIC (antibacterial activity, Table 2) [26]: > 64 µg/mL
3 | CCC1OC(=O)C(C)C(=O)C(C)C(OC2OC(C)CC(N(C)C)C2O)C(C)(OC(N)=O)CC(C)C(=NO)C(C)C2OC(=O)OC12C (centres unmarked) [Ex. 2, Compound of Formula (II-A), wherein A is —O—; X is N—OH; —M— is Absent; R^2 is Hydrogen, and R^p is Hydrogen] | > 100 | > 100 | 1.56 | 1.56 | 50 | 6.2 | > 100 | > 100 | 3.1 | 1.56 | 1.56 | 1.56 | 0.39 | 0.2 | > 100 | 0.39 | 3.1 | > 100 | 8 | 8 | MIC (antibacterial activity, Table 2) [24]: 0.25 µg/mL; MIC (antibacterial activity, Table 2) [25]: 0.25 µg/mL; MIC (antibacterial activity, Table 2) [26]: > 128 µg/mL
